Experimental data reported in the supplement of paper PMC10307832.

Key:
Assay in all cases: relative viability (nuclei count vs DMSO), 5 days (fraction); higher = more cells survive
[1] = compound: CC(C)N(CCCNC(=O)Nc1ccc(C(C)(C)C)cc1)C[C@H]1O[C@@H](n2ccc3c(N)ncnc32)[C@H](O)[C@@H]1O + CC1(C)CCC(c2ccc(Cl)cc2)=C(CN2CCN(c3ccc(C(=O)NS(=O)(=O)c4ccc(N[C@H](CCN5CCOCC5)CSc5ccccc5)c(S(=O)(=O)C(F)(F)F)c4)cc3)CC2)C1 [Navitoclax] (partner 0.5 µM)
Procedure, shortened: (§1)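 Relative viability is defined as nuclei in treated wells over nuclei in vehicle wells. Duplicate plates were run and medians reported. Lung cancer cell lines in 1536-well plates were dosed by pin tool one day after seeding, with one drug or with a fixed anchor-drug dose plus five library-drug doses (not always all listed) in √10 steps, and nuclei were counted after 5 days.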

[2] = compound: CC(C)N(CCCNC(=O)Nc1ccc(C(C)(C)C)cc1)C[C@H]1O[C@@H](n2ccc3c(N)ncnc32)[C@H](O)[C@@H]1O + CC(=O)Nc1cccc(-n2c(=O)n(C3CC3)c(=O)c3c(Nc4ccc(I)cc4F)n(C)c(=O)c(C)c32)c1 [Trametinib] (partner 0.02 µM)
Procedure, shortened: as §1

Shikonin + Foretinib = compound: CC(C)=CC[C@@H](O)C1=CC(=O)c2c(O)ccc(O)c2C1=O [Shikonin] + COc1cc2c(Oc3ccc(NC(=O)C4(C(=O)Nc5ccc(F)cc5)CC4)cc3F)ccnc2cc1OCCCN1CCOCC1 [Foretinib] (partner 0.25 µM)
Procedure, shortened: as §1

Shikonin + Vorinostat = compound: CC(C)=CC[C@@H](O)C1=CC(=O)c2c(O)ccc(O)c2C1=O [Shikonin] + O=C(CCCCCCC(=O)Nc1ccccc1)NO [Vorinostat] (partner 1 µM)
Procedure, shortened: as §1

LXF-289 was tested, and the relative viability ([1]; first compound 0.08 µM) was 1, the relative viability ([1]; first compound 0.253 µM) was 0.969 and the relative viability ([1]; first compound 0.8 µM) was 0.957. It also gave a relative viability ([1]; first compound 2.53 µM) of 0.988, a relative viability ([1]; first compound 8 µM) of 0.854 and a relative viability ([2]; first compound 0.08 µM) of 0.661. The relative viability ([2]; first compound 0.253 µM) was 0.684, the relative viability ([2]; first compound 0.8 µM) was 0.651 and the relative viability ([2]; first compound 2.53 µM) was 0.732. The relative viability ([2]; first compound 8 µM) was 0.71, the relative viability (Shikonin + Foretinib; first compound 0.01 µM) was 0.987 and the relative viability (Shikonin + Foretinib; first compound 0.1 µM) was 1.02. The relative viability (Shikonin + Foretinib; first compound 0.3162 µM) was 0.998, the relative viability (Shikonin + Foretinib; first compound 1 µM) was 0.972 and the relative viability (Shikonin + Vorinostat; first compound 0.01 µM) was 0.787. It also gave a relative viability (Shikonin + Vorinostat; first compound 0.1 µM) of 0.764, a relative viability (Shikonin + Vorinostat; first compound 0.3162 µM) of 0.862 and a relative viability (Shikonin + Vorinostat; first compound 1 µM) of 0.79.
With NCI-H23 the relative viability ([1]; first compound 0.08 µM) was 0.771, the relative viability ([1]; first compound 0.8 µM) was 0.698 and the relative viability ([1]; first compound 2.53 µM) was 0.822. It also gave a relative viability ([1]; first compound 8 µM) of 0.75, a relative viability ([2]; first compound 0.08 µM) of 0.336 and a relative viability ([2]; first compound 0.8 µM) of 0.361. It also gave a relative viability ([2]; first compound 2.53 µM) of 0.547, a relative viability ([2]; first compound 8 µM) of 0.373 and a relative viability (Shikonin + Foretinib; first compound 0.01 µM) of 1.09. The relative viability (Shikonin + Foretinib; first compound 0.1 µM) was 1.07, the relative viability (Shikonin + Foretinib; first compound 0.3162 µM) was 1.03 and the relative viability (Shikonin + Foretinib; first compound 1 µM) was 0.983. It also gave a relative viability (Shikonin + Vorinostat; first compound 0.01 µM) of 0.611, a relative viability (Shikonin + Vorinostat; first compound 0.1 µM) of 0.75 and a relative viability (Shikonin + Vorinostat; first compound 0.3162 µM) of 0.59. The relative viability (Shikonin + Vorinostat; first compound 1 µM) was 0.625.
NCI-H358 showed a relative viability ([2]; first compound 0.08 µM) of 0.135, a relative viability ([2]; first compound 0.253 µM) of 0.137 and a relative viability ([2]; first compound 0.8 µM) of 0.132. It also gave a relative viability ([2]; first compound 2.53 µM) of 0.13, a relative viability ([2]; first compound 8 µM) of 0.138 and a relative viability (Shikonin + Foretinib; first compound 0.01 µM) of 0.651. The relative viability (Shikonin + Foretinib; first compound 0.1 µM) was 0.729, the relative viability (Shikonin + Foretinib; first compound 0.3162 µM) was 0.707 and the relative viability (Shikonin + Foretinib; first compound 1 µM) was 0.604. The relative viability (Shikonin + Vorinostat; first compound 0.01 µM) was 0.999, the relative viability (Shikonin + Vorinostat; first compound 0.1 µM) was 0.67 and the relative viability (Shikonin + Vorinostat; first compound 0.3162 µM) was 0.856. For the same cell line, the relative viability (Shikonin + Vorinostat; first compound 1 µM) was 0.573.
NCI-H522 was tested, and the relative viability ([2]; first compound 0.08 µM) was 0.633, the relative viability ([2]; first compound 0.253 µM) was 0.763 and the relative viability ([2]; first compound 0.8 µM) was 0.824. It also gave a relative viability ([2]; first compound 2.53 µM) of 0.798, a relative viability ([2]; first compound 8 µM) of 0.845 and a relative viability (Shikonin + Vorinostat; first compound 0.01 µM) of 0.875. It also gave a relative viability (Shikonin + Vorinostat; first compound 0.1 µM) of 1, a relative viability (Shikonin + Vorinostat; first compound 0.3162 µM) of 0.903 and a relative viability (Shikonin + Vorinostat; first compound 1 µM) of 0.958.
NCI-H650 gave a relative viability ([2]; first compound 0.08 µM) of 0.859, a relative viability ([2]; first compound 0.253 µM) of 1.06 and a relative viability ([2]; first compound 0.8 µM) of 0.875. The relative viability ([2]; first compound 2.53 µM) was 1.03, the relative viability ([2]; first compound 8 µM) was 0.994 and the relative viability (Shikonin + Foretinib; first compound 0.01 µM) was 1.01. It also gave a relative viability (Shikonin + Foretinib; first compound 0.1 µM) of 0.999, a relative viability (Shikonin + Foretinib; first compound 0.3162 µM) of 1.08 and a relative viability (Shikonin + Foretinib; first compound 1 µM) of 1.01. The relative viability (Shikonin + Vorinostat; first compound 0.01 µM) was 0.425, the relative viability (Shikonin + Vorinostat; first compound 0.1 µM) was 0.418 and the relative viability (Shikonin + Vorinostat; first compound 0.3162 µM) was 0.465. For the same cell line, the relative viability (Shikonin + Vorinostat; first compound 1 µM) was 0.439.
NCI-H661 showed a relative viability ([2]; first compound 0.08 µM) of 0.544, a relative viability ([2]; first compound 0.253 µM) of 0.551 and a relative viability ([2]; first compound 0.8 µM) of 0.551. For the same cell line, the relative viability ([2]; first compound 2.53 µM) was 0.675, the relative viability ([2]; first compound 8 µM) was 0.619 and the relative viability (Shikonin + Foretinib; first compound 0.01 µM) was 0.987. For the same cell line, the relative viability (Shikonin + Foretinib; first compound 0.1 µM) was 1.08, the relative viability (Shikonin + Foretinib; first compound 0.3162 µM) was 1.09 and the relative viability (Shikonin + Foretinib; first compound 1 µM) was 0.976. It also gave a relative viability (Shikonin + Vorinostat; first compound 0.01 µM) of 0.837, a relative viability (Shikonin + Vorinostat; first compound 0.1 µM) of 0.833 and a relative viability (Shikonin + Vorinostat; first compound 0.3162 µM) of 0.812. It also gave a relative viability (Shikonin + Vorinostat; first compound 1 µM) of 0.736.
In the case of NCI-H1299, the relative viability ([1]; first compound 0.08 µM) is reported as 1.07, the relative viability ([1]; first compound 0.253 µM) is reported as 1.05 and the relative viability ([1]; first compound 0.8 µM) is reported as 1.02. The relative viability ([1]; first compound 2.53 µM) was 1.06, the relative viability ([1]; first compound 8 µM) was 1.02 and the relative viability (Shikonin + Foretinib; first compound 0.01 µM) was 1.08. It also gave a relative viability (Shikonin + Foretinib; first compound 0.1 µM) of 1.15, a relative viability (Shikonin + Foretinib; first compound 0.3162 µM) of 1.09 and a relative viability (Shikonin + Foretinib; first compound 1 µM) of 1.09.
NCI-H1563 was tested, and the relative viability (Shikonin + Foretinib; first compound 0.01 µM) was 0.935, the relative viability (Shikonin + Foretinib; first compound 0.1 µM) was 0.848 and the relative viability (Shikonin + Foretinib; first compound 0.3162 µM) was 1.06. For the same cell line, the relative viability (Shikonin + Foretinib; first compound 1 µM) was 0.902.
NCI-H1623 showed a relative viability (Shikonin + Foretinib; first compound 0.01 µM) of 0.874, a relative viability (Shikonin + Foretinib; first compound 0.1 µM) of 0.866 and a relative viability (Shikonin + Foretinib; first compound 0.3162 µM) of 1.06. It also gave a relative viability (Shikonin + Foretinib; first compound 1 µM) of 0.917.
For NCI-H1648, the relative viability ([2]; first compound 0.08 µM) was 0.424, the relative viability ([2]; first compound 0.253 µM) was 0.522 and the relative viability ([2]; first compound 0.8 µM) was 0.406. For the same cell line, the relative viability ([2]; first compound 2.53 µM) was 0.419, the relative viability ([2]; first compound 8 µM) was 0.455 and the relative viability (Shikonin + Vorinostat; first compound 0.01 µM) was 0.351. For the same cell line, the relative viability (Shikonin + Vorinostat; first compound 0.3162 µM) was 0.672 and the relative viability (Shikonin + Vorinostat; first compound 1 µM) was 0.509.
In the case of NCI-H1703, the relative viability ([1]; first compound 0.08 µM) is reported as 1.13, the relative viability ([1]; first compound 0.253 µM) is reported as 1.14 and the relative viability ([1]; first compound 0.8 µM) is reported as 1.61. It also gave a relative viability ([1]; first compound 2.53 µM) of 1.27, a relative viability ([1]; first compound 8 µM) of 0.89 and a relative viability (Shikonin + Foretinib; first compound 0.01 µM) of 0.361. It also gave a relative viability (Shikonin + Foretinib; first compound 0.1 µM) of 0.401, a relative viability (Shikonin + Foretinib; first compound 0.3162 µM) of 0.319 and a relative viability (Shikonin + Foretinib; first compound 1 µM) of 0.329.
Cell Line NCI-H1792 has a relative viability ([1]; first compound 0.08 µM) of 0.634, a relative viability ([1]; first compound 0.253 µM) of 0.589 and a relative viability ([1]; first compound 0.8 µM) of 0.623. It also gave a relative viability ([1]; first compound 2.53 µM) of 0.591, a relative viability ([1]; first compound 8 µM) of 0.571 and a relative viability ([2]; first compound 0.08 µM) of 0.397. The relative viability ([2]; first compound 0.8 µM) was 0.372, the relative viability ([2]; first compound 2.53 µM) was 0.419 and the relative viability ([2]; first compound 8 µM) was 0.29.
NCI-H2342 gave a relative viability ([2]; first compound 0.08 µM) of 0.781, a relative viability ([2]; first compound 0.253 µM) of 0.81 and a relative viability ([2]; first compound 0.8 µM) of 0.692. For the same cell line, the relative viability ([2]; first compound 2.53 µM) was 0.656, the relative viability ([2]; first compound 8 µM) was 0.826 and the relative viability (Shikonin + Foretinib; first compound 0.01 µM) was 1. The relative viability (Shikonin + Foretinib; first compound 0.1 µM) was 1.12, the relative viability (Shikonin + Foretinib; first compound 0.3162 µM) was 1.03 and the relative viability (Shikonin + Foretinib; first compound 1 µM) was 1.03. For the same cell line, the relative viability (Shikonin + Vorinostat; first compound 0.01 µM) was 0.872, the relative viability (Shikonin + Vorinostat; first compound 0.1 µM) was 0.722 and the relative viability (Shikonin + Vorinostat; first compound 0.3162 µM) was 0.78. For the same cell line, the relative viability (Shikonin + Vorinostat; first compound 1 µM) was 0.764.
SW 900 was tested, and the relative viability ([2]; first compound 0.08 µM) was 0.734, the relative viability ([2]; first compound 0.253 µM) was 0.78 and the relative viability ([2]; first compound 2.53 µM) was 0.766. It also gave a relative viability ([2]; first compound 8 µM) of 0.717, a relative viability (Shikonin + Foretinib; first compound 0.01 µM) of 1.04 and a relative viability (Shikonin + Foretinib; first compound 0.1 µM) of 0.987. For the same cell line, the relative viability (Shikonin + Foretinib; first compound 0.3162 µM) was 0.915, the relative viability (Shikonin + Foretinib; first compound 1 µM) was 0.801 and the relative viability (Shikonin + Vorinostat; first compound 0.01 µM) was 0.357. It also gave a relative viability (Shikonin + Vorinostat; first compound 0.1 µM) of 0.458, a relative viability (Shikonin + Vorinostat; first compound 0.3162 µM) of 0.377 and a relative viability (Shikonin + Vorinostat; first compound 1 µM) of 0.576.
